Measured values: patent EP0885186B1, “AMINO ACID DERIVATIVES, PHARMACEUTICAL COMPOSITIONS CONTAINING THESE COMPOUNDS AND PROCESSES FOR PREPARING THEM” (Dr. Karl Thomae GmbH, priority 1995, dated 1997)
Blank lines part the entries; values can stand above or below the molecule they belong to.

Tests used:
[1] = system: NPY activity; assay: NPY-antagonism in vitro, isolated perfused rat kidney, NPY-induced perfusion pressure increase; design: species or system rats; conditions: inhibition of pressure increase by NPY (1µM) bolus
Protocol: B. NPY-antagonism in vitro
Male rats (CHbb: THOM, 300 to 350 g) are given heparin (100 IU, i.v.) and the animals are then killed by a blow to the back of the neck. The abdomen is opened along the centre of the body and the left kidney is removed after the insertion of catheters in the renal artery, renal vein and ureter. The isolated kidney is immediately perfused with a modified Krebs-Ringer solution having the following composition (4 ml/minute):
A mixture of 95% O2/5% CO2 is passed through the solution which is kept at a temperature of 37°C. The perfusion pressure is measured continuously using a pressure gauge. After a 60 minute stabilisation period the perfusion rate is adjusted so as to obtain a perfusion pressure of approximately 100 mm Hg. After a further 30 minutes the experiment is started and NPY (1µM) is administered as a bolus (0.1 ml) at 15 minute intervals until the pressure increase observed reaches a constant value. The compounds to be tested are given in the form of a continuous infusion over a period of 5 minutes and then NPY is injected. After a 30 minute wash-out period the next highest concentration of test substance is investigated. 3 to 5 different concentrations of the particular compound are tested on each occasion. […]

[2] = molecular target: T1, NPY-Y1 receptor (Homo sapiens, UniProt P25929); assay: Studies of binding with SK-N-MC cells, displacement of [125I]-Bolton-Hunter-NPY; conditions: inhibition of specific binding of [125I]-Bolton-Hunter-NPY, 3 hours at ambient temperature
T1 construct: endogenous in cells; host or cells: SK-N-MC cells (whole cells in suspension)
T1 sequence (P25929 1-384): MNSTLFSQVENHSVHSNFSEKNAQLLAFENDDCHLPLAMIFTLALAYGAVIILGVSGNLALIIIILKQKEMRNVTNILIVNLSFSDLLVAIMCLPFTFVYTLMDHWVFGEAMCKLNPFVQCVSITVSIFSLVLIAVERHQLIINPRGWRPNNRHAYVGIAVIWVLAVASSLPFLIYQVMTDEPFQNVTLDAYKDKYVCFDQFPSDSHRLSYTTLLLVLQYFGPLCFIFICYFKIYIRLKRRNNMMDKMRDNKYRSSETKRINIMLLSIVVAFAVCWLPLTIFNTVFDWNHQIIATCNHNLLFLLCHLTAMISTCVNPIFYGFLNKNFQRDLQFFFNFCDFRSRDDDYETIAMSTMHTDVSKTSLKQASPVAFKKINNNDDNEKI
Protocol: A. Studies of binding with SK-N-MC cells (expressing the human Y1-receptor)
The cells are detached using a mixture of 0.02% EDTA in PBS and resuspended in 10 ml of incubation medium (MEM/25 mM Hepes + 0.5% BSA, 50 µM PMSF, 0.1% bacitracin, 3.75 mM CaCl2) per 40 million cells approx. After 5 minutes' centrifuging (150 x g) the pellet is resuspended in the same volume and, after a further washing step in 10 ml of incubation medium, counted and diluted to 1.25 million cells/ml. Then 200 µl of a suspension of 1.25 million cells/ml is incubated for 3 hours at ambient temperature with 25 µl of a 300 pM solution of [^125I]-Bolton-Hunter-NPY and increasing concentrations (10^-11 to 10^-6 M) of the test substances, whilst maintaining a total volume of 250 µl. Incubation is ended by centrifuging (10 minutes at 3000 x g and 4°C). After washing once with PBS, the radioactivity of the pellet is measured in a gamma counter. The radioactivity thus obtained represents the sum of specific and non-specific binding of [^125I]-Bolton-Hunter-NPY. The proportion of non-specific binding is defined as that radioactivity which is bound in the presence of 1 µM NPY. The IC50 values of the unlabelled test substances are determined graphically. They represent the concentration of the test substance in question at which the specific binding of[^125I]-Bolton-Hunter-NPY to the NPY-Y1 receptor is inhibited by 50%.

[3] = system: NPY-induced blood pressure effects; assay: In vivo NPY-antagonism, pithed rats, NPY-induced increase in diastolic blood pressure; conditions: test substance injected 1 min before NPY 10 µg/kg i.v.
Protocol: C. In vivo NPY-antagonism
Male rats of normal blood pressure (Chbb:THOM, 300 to 350 g) are anaesthetised with sodium hexobarbital (150 mg/kg, i.p.). After intubation of the trachea the animals are pithed by introducing a blunt needle through the eye into the spinal bone marrow channel. The animals are ventilated with oxygen-rich ambient air using a respiratory pump (20 strokes/minute). A cannula is inserted in the left carotid artery and the arterial blood pressure is measured using a pressure gauge (Braun Melsungen Combitrans) connected to a recording device. For injection purposes a catheter is placed in the left jugular vein through which heparin is administered (200 IU/kg, i.v.). After the blood pressure has been stabilised, the animals are given 2 bolus injections of NPY (10 µg/kg, i.v.) at intervals of 15 minutes. The average increase in diastolic blood pressure is taken as the reference value (= 100%). The test substances are injected in increasing doses (4 to 6 doses) at intervals of 15 minutes. One minute after administration of the test substance, NPY is administered.
The antagonistic effect of the test substances is determined by plotting the percentage inhibition of the NPY-induced blood pressure effects against the logarithm of the concentration of active substance.

[4] = system: food-deprived rats; assay: Food intake in food-deprived rats; format: in vivo; conditions: 24 hour food deprived rats, 15 µg, bilaterally, into PVN
Protocol: Food intake in food-deprived rats
Food-deprivation experiments were conducted with male Chbb:Thom rats weighing between 300 and 350 g. The animals were individually housed for the duration of the study and allowed free access to normal food together with tap water. Food was removed from the animals for 24 hours starting at 8:00 a.m. At the end of the fasting period compound or vehicle was administered to the animals by infusion into the PVN. Food was returned to the animals and their food intake monitored at various time periods during the following 24 hour period. The food intake of animals treated with test compound was calculated as a percentage of the food intake of control animals (i.e., animals treated with vehicle).

[5] = system: NPY-induced food intake; assay: Food intake in satiated rats after NPY application to the paraventricular nucleus; format: in vivo; conditions: for Food intake following NPY application: 2 h intake, satiated rats; for % Inhibition of food intake: versus vehicle + NPY
Protocol: D. In vivo Studies in rats: Food intake in satiated rats
For these determinations food intake was measured in normal satiated rats after application of NPY to the paraventricular nucleus (PVN) in the presence or absence of the test compound. Male Chbb: Thom rats weighing between 300 and 350 g were used for all experiments. The rats were individually housed in stainless steel cages where water and food were available ad libitum.
Rats under Pentobarbital anaesthesia were stereotactically implanted with a stainless steel double guide cannula targeted bilaterally at the PVNs. Stereotactic coordinates were: -1.8mm caudal, 0.5mm lateral to bregma and 7.0mm below the skull surface. Injection cannulae extended the guide cannulae by 1 mm. Animals were allowed to recover from surgery for at least 10 days before being used in the experiments. Rats were handled and mock-injected during the one-week recovery period to habituate them to the injection procedure.
Animals treated with both test compounds and NPY were treated first with the test compound. Then, 15 min. after PVN infusion of the test compound or vehicle (control) 1 µg of NPY was administered by PVN infusion.
Food intake was measured by placing preweighed pellets into the cages at the time of NPY injection. Pellets were removed from the cage at 2 h post NPY injection. The food intake of animals treated with test compound was calculated as a percentage of the food intake of control animals, i.e., animals treated with vehicle.

Molecule: CN(CCCC(NC(=O)C(c1ccccc1)c1ccccc1)C(=O)NCc1ccc(O)cc1)C(=N)N (racemic) [(B), (R,S)-N^5-(aminoiminomethyl)-N^2-(diphenylacetyl)-N-[(4-hydroxyphenyl)methyl]-N^5-methyl-ornithinamide]
pIC50 [1]: 8.41 mol/l | IC50 [2]: 0.62 nM | pID50 [3]: 7.87 mol/kg

Molecule: N=C(N)NCCC[C@@H](NC(=O)C(c1ccccc1)c1ccccc1)C(=O)NCc1ccc(CNC(N)=O)cc1 [(A), (R)-N-[[4-(aminocarbonylaminomethyl)phenyl]methyl]-N^2-(diphenylacetyl)-argininamide]
pIC50 [1]: 8.12 mol/l | duration of significant reduction in food intake [4]: at least 4 h | Food intake following NPY application ([5]; 15 µg of compound by PVN infusion 15 min before 1 µg NPY): 2.62 g/animal | % Inhibition of food intake ([5]; 15 µg of compound by PVN infusion): 25.9% | Food intake following NPY application ([5]; 30 µg of compound by PVN infusion 15 min before 1 µg NPY): 1.67 g/animal | % Inhibition of food intake ([5]; 30 µg of compound by PVN infusion): 52.8% | Food intake following NPY application ([5]; 60 µg of compound by PVN infusion 15 min before 1 µg NPY): 1.07 g/animal | % Inhibition of food intake ([5]; 60 µg of compound by PVN infusion): 69.8% | pID50 [3]: 8.11 mol/kg

Molecule: N=C(N)NCCC[C@@H](NC(=O)C(c1ccccc1)c1ccccc1)C(=O)NCc1ccc(CC(N)=O)cc1 [(C), (R)-N-[[4-(aminocarbonylmethyl)phenyl]methyl]-N^2-(diphenylacetyl)-argininamide]
IC50 [2]: 0.63 nM

Molecule: CCNC(=O)NCc1ccc(CNC(=O)[C@@H](CCCNC(=N)N)NC(=O)C(c2ccccc2)c2ccccc2)cc1 [(D), (R)-N^2-(diphenylacetyl)-N-[[4-(ethylaminocarbonylamino-methyl)phenyl]methyl]-argininamide]
IC50 [2]: 0.75 nM

Molecule: NPY: NPY, agonist applied to the paraventricular nucleus (1 µg) to elicit feeding response in satiated rats
two hour food intake ([5]; NPY 1µg into PVN, 0.5 g in animals injected with vehicle): 3.5 g

Results, then the molecule that gave them:

IC50 [2]: 0.4 nM
Molecule: CCOC(=O)CNC(=O)NCc1ccc(CNC(=O)[C@@H](CCCNC(=N)N)NC(=O)C(c2ccccc2)c2ccccc2)cc1 [(E), (R)-N^2-(diphenylacetyl)-N-[[4-(ethoxycarbonylmethylamino-carbonylaminomethyl)-phenyl)methyl]-argininamide]

IC50 [2]: 0.35 nM
Molecule: N=C(N)NCCC[C@@H](NC(=O)C(c1ccc(Cl)cc1)c1ccc(Cl)cc1)C(=O)NCc1ccc(CNC(N)=O)cc1 [(F), (R)-N-[[4-(aminocarbonylaminomethyl)phenyl]methyl]-N^2-[bis-(4-chlorophenyl)-acetyl]-argininamide]

IC50 [2]: 0.17 nM
Molecule: N=C(N)NCCC[C@@H](NC(=O)C(c1ccc(O)cc1)c1ccc(O)cc1)C(=O)NCc1ccc(CNC(N)=O)cc1 [(G), (R)-N-[[4-(aminocarbonylaminomethyl)phenyl]methyl]-N^2-[bis-(4-hydroxyphenyl)-acetyl]-argininamide]
